This experiment has as its system A549. Put plainly: Cytotoxicity against human A549 cells by SRB assay. The format is functional, cell-based.

IC50 data for two compounds are collected here from ChEMBL document CHEMBL1157217, “Terpenoid indole alkaloids from Winchia calophylla” (J Nat Prod, 2006).

Structures are written as SMILES.

The compound `COC(=O)C1=C2Nc3c(OC)cccc3[C@@]23CCN2C[C@@H]([C@H](C)O)[C@@H]1C[C@H]23` displayed an IC50 of 11.5 µM. `C/C=C1/CN2CC[C@]34C(=C(C(=O)OC)[C@H]1C[C@H]23)Nc1ccccc14` [AKUAMMICINE] registered an IC50 of 15 µM.
